One assay deals with T1, Ole1 (Saccharomyces cerevisiae, UniProt P21147).
T1 construct: expressed in transfected cells; host or cells: S. cerevisiae ole1Δ strain (W303 pdr1Δ pdr3Δ background), plasmid pRS316 with TDH3 promoter and CYC1 terminator
T1 sequence (P21147 1-510): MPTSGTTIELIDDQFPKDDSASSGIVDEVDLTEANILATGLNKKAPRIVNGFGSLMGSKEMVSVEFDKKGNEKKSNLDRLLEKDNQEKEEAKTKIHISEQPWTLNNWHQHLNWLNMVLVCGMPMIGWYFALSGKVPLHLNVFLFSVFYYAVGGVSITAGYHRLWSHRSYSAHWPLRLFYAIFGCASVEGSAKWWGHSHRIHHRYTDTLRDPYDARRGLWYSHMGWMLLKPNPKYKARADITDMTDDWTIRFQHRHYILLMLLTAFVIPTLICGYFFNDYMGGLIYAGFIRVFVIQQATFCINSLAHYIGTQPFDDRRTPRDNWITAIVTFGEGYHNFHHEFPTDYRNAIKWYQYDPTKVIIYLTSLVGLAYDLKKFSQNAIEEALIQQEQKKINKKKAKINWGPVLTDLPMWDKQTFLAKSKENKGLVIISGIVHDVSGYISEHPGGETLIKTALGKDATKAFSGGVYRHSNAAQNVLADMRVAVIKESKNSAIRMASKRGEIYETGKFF
Kind of assay: Growth inhibition of yeast strain expressing Ole1 as sole desaturase. The assay is classed as cell-based. The note with it: yeast strain expressing Ole1 as sole desaturase. In outline: (§1)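 Measured by optical density at 600 nm, growth of desaturase-dependent yeast (OLE1 deleted; human SCD1, human SCD5 or yeast Ole1 supplied from plasmid) was scored after 24 h (Ole1) or 40 h (SCD1, SCD5) at 30° C. in galactose media lacking uracil with DMSO-delivered compound.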

A further assay addresses T2, SCD1 (Homo sapiens, UniProt O00767).
T2 construct: host or cells: S. cerevisiae ole1Δ strain (W303 pdr1Δ pdr3Δ background), plasmid pRS316 with TDH3 promoter and CYC1 terminator
T2 sequence (O00767 1-359): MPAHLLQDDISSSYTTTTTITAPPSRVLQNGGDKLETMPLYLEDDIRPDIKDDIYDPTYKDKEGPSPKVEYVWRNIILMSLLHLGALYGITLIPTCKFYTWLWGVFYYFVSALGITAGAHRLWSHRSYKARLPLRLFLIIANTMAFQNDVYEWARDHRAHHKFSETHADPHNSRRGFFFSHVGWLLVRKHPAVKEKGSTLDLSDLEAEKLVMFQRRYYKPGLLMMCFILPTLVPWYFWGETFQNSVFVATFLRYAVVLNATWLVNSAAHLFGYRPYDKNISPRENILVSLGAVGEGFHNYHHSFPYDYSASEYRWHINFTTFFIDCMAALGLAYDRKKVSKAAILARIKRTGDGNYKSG
In words: Growth inhibition of humanized yeast strain expressing SCD1 as sole desaturase. The assay is classed as cell-based. Particulars: humanized yeast strain expressing SCD1. An outline of the steps: as §1

For the next assay, the target named is T3, SCD5 (Homo sapiens, UniProt Q86SK9).
T3 construct: host or cells: S. cerevisiae ole1Δ strain (W303 pdr1Δ pdr3Δ background), plasmid pRS316 with TDH3 promoter and CYC1 terminator
T3 sequence (Q86SK9 1-330): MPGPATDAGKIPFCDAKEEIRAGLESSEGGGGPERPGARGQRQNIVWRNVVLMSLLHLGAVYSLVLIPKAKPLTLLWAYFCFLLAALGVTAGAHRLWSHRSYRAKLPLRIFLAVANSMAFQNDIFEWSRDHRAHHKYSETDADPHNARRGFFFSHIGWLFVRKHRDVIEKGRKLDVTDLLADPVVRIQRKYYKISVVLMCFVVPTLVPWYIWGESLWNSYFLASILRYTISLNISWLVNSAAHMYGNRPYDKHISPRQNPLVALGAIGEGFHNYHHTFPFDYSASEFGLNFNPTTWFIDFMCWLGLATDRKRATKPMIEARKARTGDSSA
In words: Growth inhibition of humanized yeast strain expressing SCD5 as sole desaturase. The assay is classed as cell-based. Particulars: humanized yeast strain expressing SCD5. An outline of the steps:
as §1

For assay [1], the system named is yeast strains expressing the human ApoE4. Kind of assay: Yeast ApoE4 toxicity rescue assay (OD600 growth). Particulars: 24 h; for EC50: read-out: ApoE4 EC50; for Emax: read-out: ApoE4 Emax.
Text: The induced expression of α-synuclein and ApoE4 confers cytotoxicity, thus enabling the identification of compounds that can restore cell viability. This instantaneous/synchronous induction of α-synuclein and ApoE4 can be achieved due to the following expression control. In glucose-containing media, gene expression from the GAL1 promoter is ‘off’ and actively repressed by additional epigenetic factors. In raffinose, expression is ‘off’, but the promoter not actively repressed. Upon transition to galactose-containing media, the promoter is instantaneously turned ‘on’ to achieve robust and synchronous induction of α-synuclein or ApoE4 expression. This highly regulated induction provides a robust window for the determination of both efficacy (amplitude of protective effect) and potency (concentration of protective effect) of cytoprotective compounds.
Re-suspended compound stocks were subsequently arrayed into 384 well compound plates using automated pipetting. All other wells not receiving stock compound were filled with 10 μL of 100% DMSO using an automated plate filler (Multidrop Combi). An 11 point, 2-fold serial dilution was then performed using the robotic platform. Compound assay plates were covered with foil and stored at −20° C. until use.
Each strain was handled according to standard protocols and cultured in media composed of CSM (complete synthetic media), YNB (yeast nitrogenous base), and a 2% (w/v) carbon source (either glucose, raffinose, or galactose).
In a standard yeast assay, a single-use aliquot of cells was thawed on ice and diluted into CSM/glucose (5 mL). Cultures were grown for 8 hours at 30° C. This pre-growth enables the yeast to exit the thaw and begin to grow without expressing aSyn or ApoE4. After 8 hours, cell density (OD600) was determined and cultures diluted to an OD600 of 0.01 in CSM/raffinose for an overnight culture phase at 30° C. During this period, the active glucose repression of the GAL1 promoter was relieved; however, expression of the α-Syn/ApoE4 genes were not yet induced. After ˜16 hours of growth, cultures attain an OD600 of 0.4-0.8 and were ready to apply to assay plates containing compound.
Compound profiling assays were executed in clear-bottom 384 well plates. First, compound plates were thawed at room temperature for 45′, centrifuged at 1,000×g for 1 minute, and the foil removed. Clear 384 well assay plates were then filled with 15 μL of CSM/galactose. […] The pin tool was washed iteratively with both 50% DMSO and 100% ethanol between each assay plate. After delivering compound to each assay plate, the overnight CSM/raffinose aSyn or ApoE4 cultures were added at a 2X cell density (0.04 for aSyn and 0.08 for ApoE4) in CSM/galactose to achieve a final assay OD600 of 0.02 and 0.04 for aSyn and ApoE, respectively. The cultures (15 μL per well) were then dispensed to the compound -containing 384 well assay plates using an automated plate filler. Plates were incubated in a humidified 30° C. incubator for 40 or 24 hours for aSyn and ApoE4, respectively. The ODsoo of each assay plate was then read with a microplate reader (e.g., Perkin Elmer Envision).
The efficacy and potency of compounds were calculated according to the following. Raw data (OD600 values) were first background corrected to account for OD600 contributed by the plate and media itself. The efficacy (percent above DMSO, herein referred to as “Emax”) was calculated according to the equation: (Experimental well−DMSO control well)/(DMSO control well)*100. […] Normalized dose-response data was fit with a logistic regression curve using Spotfire (TIBCO), or similar curve-fitting software package. EC50 values were then reported along with EMax to provide both efficacy and potency measures for each analog and enable further compound design.
For assay [2], the system named is yeast strains expressing the human α-synuclein. Kind of assay: Yeast α-synuclein toxicity rescue assay (OD600 growth). Particulars: 40 h; for EC50: read-out: α-Syn EC50; for Emax: read-out: α-Syn Emax.

As for `O=C(NCC(=O)N1CCC(c2nc(-c3ccccc3F)no2)CC1)c1ccccc1` [Compound 43], at Ole1, the IC50 is over 45 µM and the “OLE1 % Max Inhibition” value was determined as 107.35%. Further, at SCD1, the IC50 is over 45 µM and the “SCD1 % Max Inhibition” value is 76.52%. Further, on SCD5, the IC50 is over 45 µM and the “SCD5 % Max Inhibition” value was found to be 65.66%. In addition, in assay [1], the EC50 turned out to be 17.7 µM and the Emax is 517%. Also, in assay [2], the concentration for a half-maximal effect (EC50) amounted to 14.6 µM and the Emax turned out to be 222%.
`CCOc1ccc(-c2noc(C3CCN(C(=O)c4cnc(-c5ccccc5)[nH]4)CC3)n2)cc1OC` [compound 98]: the IC50 was over 45 µM at Ole1, over 45 µM against SCD1 and 41.1 µM at SCD5. For the same compound, the EC50 amounted to 9.75 µM in assay [1] and 8.01 µM in assay [2]. Also, the figures for the Emax in assay [1] and in assay [2] were 650% and 386%, respectively.
For the compound `COc1ccc(-c2noc(C3CCN(C(=O)Cc4ccccc4)CC3)n2)cc1OC` [Compound 44], on Ole1, the IC50 was over 45 µM and the “OLE1 % Max Inhibition” value was 93.69%. Further, on SCD1, the IC50 was over 45 µM and the “SCD1 % Max Inhibition” value is listed as 17.96%. For the same compound, at SCD5, the IC50 is over 45 µM and the “SCD5 % Max Inhibition” value is 10.99%. In addition, in assay [1], the EC50 came to 13.3 µM and the Emax was determined as 676%. For the same compound, in assay [2], the EC50 is 10.9 µM and the Emax turned out to be 579%.
For the compound `COc1ccc(-c2noc(C3CCN(C(=O)C4CC(=O)N(c5ccc(C)c(C)c5)C4)CC3)n2)cc1` (stereo not drawn) [compound 20], the IC50 at Ole1, at SCD1 and against SCD5 was over 45 µM each time. The EC50 in assay [1] came out at 16.2 µM; in assay [2], 15.1 µM. The Emax was determined as 529% in assay [1] and 181% in assay [2].
In the case of `COc1ccc(-c2noc(C3CCN(C(=O)N4CCCCC4)CC3)n2)cc1OC` [Compound 54], on Ole1, the IC50 was over 45 µM and the “OLE1 % Max Inhibition” value stood at 85.34%. In addition, at SCD1, the IC50 is over 45 µM and the “SCD1 % Max Inhibition” value stood at 82.41%. For the same compound, at SCD5, the IC50 was over 45 µM and the “SCD5 % Max Inhibition” value is listed as 47.60%. Besides, in assay [1], the concentration for a half-maximal effect (EC50) is 17.3 µM and the Emax was determined as 240%. In addition, in assay [2], the EC50 amounted to 9.1 µM and the Emax turned out to be 95%.
Take `CC(C)c1ccc(C(=O)N2CCC(c3noc(-c4cccc(F)c4)n3)CC2)cc1` [Compound 52]: on Ole1, the IC50 was over 45 µM and the “OLE1 % Max Inhibition” value was 11.78%. Besides, on SCD1, the IC50 was over 45 µM and the “SCD1 % Max Inhibition” value is recorded as 1.65%. Further, at SCD5, the IC50 is over 45 µM and the “SCD5 % Max Inhibition” value is −1.01%. Also, in assay [1], the EC50 worked out at 14.5 µM and the Emax is 154%. Moreover, in assay [2], the EC50 is 9.06 µM and the Emax came out at 82%.
Regarding `Cc1cccc(-c2nc(C3CCN(C(=O)[C@@H]4CC(=O)N(c5ccc(C)c(C)c5)C4)CC3)no2)c1` (single isomer, unassigned) [compound 74], the IC50 on Ole1 is over 45 µM; against SCD1 it was 31.3 µM; at SCD5, over 45 µM. Further, the Emax in assay [1] came out at 411%; in assay [2] it was 155%. In assay [2], the EC50 came out at 17.9 µM.
With `COc1ccc(-c2noc(C3CCN(C(=O)CNc4nccc5ccccc45)CC3)n2)cc1OC` [Compound 55], at Ole1, the IC50 is over 45 µM and the “OLE1 % Max Inhibition” value is 114.12%. For the same compound, on SCD1, the IC50 is 33.7 µM and the “SCD1 % Max Inhibition” value is 74.99%. At SCD5, the IC50 was over 45 µM and the “SCD5 % Max Inhibition” value is recorded as 74.78%. Moreover, in assay [1], the EC50 is 7.9 µM and the Emax turned out to be 29%. In assay [2], the EC50 came out at 23.8 µM and the Emax was found to be 47%.
Consider `O=C(NCC(=O)N1CCC(c2nc(-c3ccccc3)no2)CC1)c1ccccc1` [compound 9], for which the IC50 on Ole1, against SCD1 and at SCD5 was over 45 µM each time. The Emax in assay [1] amounted to 301%; in assay [2] it was 167%. The EC50 in assay [2] came to 12.1 µM.
As for `COc1ccc(-c2noc(C3CCN(C(=O)[C@H](C)NC(=O)c4ccccc4)CC3)n2)cc1OC` (single isomer, unassigned) [Compound 59], at Ole1, the IC50 was over 45 µM and the “OLE1 % Max Inhibition” value was found to be 105.25%. In addition, on SCD1, the IC50 is over 45 µM and the “SCD1 % Max Inhibition” value worked out at 79.13%. Also, at SCD5, the IC50 is over 45 µM and the “SCD5 % Max Inhibition” value turned out to be 59.32%. Also, the Emax in assay [1] was 47%. Besides, in assay [2], the concentration for a half-maximal effect (EC50) was 15.7 µM and the Emax came out at 82%.
As to `O=C(NCC(=O)N1CCC(c2nc(-c3ccc(F)cc3)no2)CC1)c1ccccc1` [Compound 41], on Ole1, the IC50 was over 45 µM and the “OLE1 % Max Inhibition” value is reported as 85.45%. For the same compound, on SCD1, the IC50 turned out to be 38.7 µM and the “SCD1 % Max Inhibition” value amounted to 55.28%. For the same compound, on SCD5, the IC50 is over 45 µM and the “SCD5 % Max Inhibition” value turned out to be 43.51%. For the same compound, the Emax in assay [1] was 400%. In assay [2], the EC50 turned out to be 10.9 µM and the Emax was found to be 211%.
As for `COc1cccc(-c2noc(C3CCN(C(=O)C4CC(=O)N(c5ccc(C)c(C)c5)C4)CC3)n2)c1` (stereo not drawn) [compound 21], the IC50 against Ole1 is over 45 µM; against SCD1, 39.9 µM; against SCD5, over 45 µM. Besides, the Emax in assay [1] amounted to 447%; in assay [2], 276%.
As for `COc1ccc(-c2noc(C3CCN(C(=O)CNC(=O)c4ccc(C)cc4)CC3)n2)cc1OC` [compound 13], the IC50 against Ole1, at SCD1 and at SCD5 was over 45 µM throughout. The EC50 in assay [1] stood at 0.368 µM; in assay [2], 0.058 µM. Also, the Emax came to 837% in assay [1] and 712% in assay [2].
On to `COc1ccc(-c2noc(C3CCN(C(=O)CNC(=O)c4ccc(C)c(C)c4)CC3)n2)cc1` [compound 16], for which the values for the IC50 against Ole1, against SCD1 and at SCD5 were over 45 µM, 37.1 µM and over 45 µM, respectively. Besides, the values for the EC50 in assay [1] and in assay [2] were 21.2 µM and 17.8 µM, respectively. Also, the values for the Emax in assay [1] and in assay [2] were 418% and 249%, respectively.
Consider `COc1cccc(-c2noc(C3CCN(C(=O)[C@@H]4CC(=O)N(c5ccc(C)c(C)c5)C4)CC3)n2)c1` (single isomer, unassigned) [compound 69], for which the IC50 against Ole1, on SCD1 and against SCD5 was over 45 µM throughout. Moreover, the Emax was 387% in assay [1] and 294% in assay [2].
In the case of `O=C(NCC(=O)N1CCC(c2nc(-c3ccc(F)c(F)c3)no2)CC1)c1ccccc1` [compound 24], the IC50 is over 45 µM against Ole1, over 45 µM at SCD1 and 30 µM at SCD5. Further, the concentration giving a half-maximal response (EC50) worked out at 13.3 µM in assay [1] and 5.13 µM in assay [2]. Further, the figures for the Emax in assay [1] and in assay [2] were 301% and 76%, respectively.
As for `COc1ccc(-c2coc(C3CCN(C(=O)CNC(=O)c4ccccc4)CC3)n2)cc1OC` [Compound 37], at Ole1, the IC50 is over 45 µM and the “OLE1 % Max Inhibition” value amounted to 9.99%. On SCD1, the IC50 is over 45 µM and the “SCD1 % Max Inhibition” value amounted to 81.44%. For the same compound, on SCD5, the 50% inhibitory concentration (IC50) was over 45 µM and the “SCD5 % Max Inhibition” value stood at 74.18%. Also, in assay [1], the EC50 was 6.53 µM and the Emax was 849%. Further, in assay [2], the EC50 worked out at 2.21 µM and the Emax worked out at 608%.

The IC50 is the point on the concentration scale where inhibition reaches its midpoint. High values mean lower potency, low ones higher potency. As a reminder, the EC50 is the concentration at which the effect is half-maximal.

The record behind these values is patent US11873298B2, “Compounds and uses thereof” (JANSSEN PHARMACEUTICA NV, priority 2017, dated 2024).
